From US10723741B1, “DNA polymerase IIIC inhibitors and use thereof” (Acurx Pharmaceuticals, LLC, priority 2018, dated 2020)
Converted amounts (≈) assume the structure as drawn. Structures can show the parent of a compound that is named as a salt. Where two headings read alike, the source gives them in different places.

What was measured:
Assay type in all cases: cell-based
[1] = system: Staphylococcus aureus NRS384 (MRSA); assay: Broth microdilution MIC, S. aureus NRS384 (MRSA); parameters: MIC NRS 384 (MRSA): unit not given here; conditions: broth microdilution, 37° C., 20 hours; for MIC: Staphylococcus aureus, read-out: MIC NRS 384 (MRSA)
Method in brief: (§1)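 Two-fold dilutions from 64 to 0.0625 μg/ml final, 1% DMSO, were inoculated at ~5.0×10^5 cfu/ml in the strain's test medium and kept 20 h at 37 °C in ambient atmosphere. Colonies were grown on MHA, with S. pneumoniae on blood agar under 5% CO2.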

[2] = system: Staphylococcus aureus ATCC 29213 (MSSA); assay: Broth microdilution MIC, S. aureus ATCC 29213 (MSSA); conditions: read-out: MIC S. aureus ATCC 29213 (MSSA)
Method in brief: as §1

[3] = system: Enterococcus faecalis ATCC 29212; assay: Broth microdilution MIC, E. faecalis ATCC 29212; conditions: read-out: MIC E. faecalis ATCC 29212
Method in brief: as §1

[4] = system: Enterococcus faecium ATCC 700221 (VRE); assay: Broth microdilution MIC, E. faecium ATCC 700221 (VRE); parameters: MIC E. faecium ATCC 700221 (VRE): unit: ug/mL; conditions: broth microdilution, 37° C., 20 hours; for MIC: Enterococcus faecium, read-out: MIC E. faecium ATCC 700221 (VRE)
Method in brief: as §1

[5] = system: Streptococcus pneumoniae ATCC 49619; assay: Broth microdilution MIC, S. pneumoniae ATCC 49619; conditions: read-out: MIC S. pneumoniae ATCC 49619
Method in brief: as §1

[6] = system: Bacillus subtilis ATCC 6633; assay: Broth microdilution MIC, B. subtilis ATCC 6633; conditions: read-out: MIC B. subtilis ATCC 6633
Method in brief: as §1

[7] = system: Escherichia coli ATCC 25922; assay: Broth microdilution MIC, E. coli ATCC 25922 (MHIIB w & w/o 4 mM EDTA); conditions: for MIC: Escherichia coli, read-out: MIC E. coli ATCC 25922; for MIC E. coli ATCC 25922 + 4 mM EDTA: with 4 mM EDTA
Method in brief: as §1

[8] = broth microdilution, 37° C., 20 hours
[9] = ATCC29212, broth microdilution, 37° C., 20 hours
[10] = ATCC49619, broth microdilution, 37° C., 20 hours
[11] = ATCC6633, broth microdilution, 37° C., 20 hours
[12] = ATCC25922, without EDTA, broth microdilution, 37° C., 20 hours

`Cl.O=C(O)C1CC(n2ncc3nc(NCc4ccc(Cl)c(Cl)c4)[nH]c(=O)c32)CN1C(=O)c1ccncc1` (stereo not drawn) [Compound 150, 4-(5-((3,4-dichlorobenzyl)amino)-7-oxo-6,7-dihydro-1H-pyrazolo[4,3-d]pyrimidin-1-yl)-1-isonicotinoylpyrrolidine-2-carboxylic acid hydrochloride] gave an MIC [1] greater than 64 mg/L, an MIC [2, 8] greater than 64 mg/L and an MIC [3, 9] greater than 64 mg/L. For the same molecule, the MIC [4] was greater than 64 mg/L, the MIC [5, 10] was greater than 64 mg/L and the MIC [6, 11] was greater than 64 mg/L. For the same molecule, the MIC [7, 12] was greater than 64 mg/L and the “MIC E. coli ATCC 25922 + 4 mM EDTA” value [7, 8] was greater than 64 mg/L.

In the case of `Cl.O=C(O)C1CC(n2ncc3nc(NCc4ccc(Cl)c(Cl)c4)[nH]c(=O)c32)CN1` (stereo not drawn) [Compound 151, 4-(5-((3,4-dichlorobenzyl)amino)-7-oxo-6,7-dihydro-1H-pyrazolo[4,3-d]pyrimidin-1-yl)pyrrolidine-2-carboxylic acid hydrochloride], the MIC [1] is reported as greater than 64 mg/L, the MIC [2, 8] is reported as greater than 64 mg/L and the MIC [3, 9] is reported as greater than 64 mg/L. The MIC [4] was greater than 64 mg/L, the MIC [5, 10] was 64 mg/L and the MIC [6, 11] was greater than 64 mg/L. For the same molecule, the MIC [7, 12] was greater than 64 mg/L and the “MIC E. coli ATCC 25922 + 4 mM EDTA” value [7, 8] was greater than 64 mg/L.

In the case of `O=c1[nH]c(NCc2ccc(Cl)c(Cl)c2)nc2cnn(C3CCNCC3)c12` [Compound 152, 5-((3,4-dichlorobenzyl)amino)-1-(piperidin-4-yl)-1H-pyrazolo[4,3-d]pyrimidin-7(6H)-one], the MIC [1] is reported as 16 mg/L (≈ 40.7 µM), the MIC [2, 8] is reported as 16 mg/L (≈ 40.7 µM) and the MIC [3, 9] is reported as 16 mg/L (≈ 40.7 µM). The MIC [4] was 8 mg/L (≈ 20.3 µM), the MIC [5, 10] was 2 mg/L (≈ 5.09 µM) and the MIC [6, 11] was 4 mg/L (≈ 10.2 µM). The MIC [7, 12] was greater than 64 mg/L and the “MIC E. coli ATCC 25922 + 4 mM EDTA” value [7, 8] was 32 mg/L.

Work on `CC(C)(C)OC(=O)N1CCC(n2ncc3nc(NCc4ccc(Cl)c(Cl)c4)[nH]c(=O)c32)CC1` [Compound 153, Tert-butyl 4-(5-((3,4-dichlorobenzyl)amino)-7-oxo-6,7-dihydro-1H-pyrazolo[4,3-d]pyrimidin-1-yl)piperidine-1-carboxylate] yielded an MIC [1] of 4 mg/L (≈ 8.11 µM), an MIC [2, 8] of 8 mg/L (≈ 16.2 µM) and an MIC [3, 9] of 4 mg/L (≈ 8.11 µM). The MIC [4] was 2 mg/L (≈ 4.05 µM), the MIC [5, 10] was 16 mg/L (≈ 32.4 µM) and the MIC [6, 11] was 2 mg/L (≈ 4.05 µM). For the same molecule, the MIC [7, 12] was greater than 64 mg/L.

With `Cl.O=c1[nH]c(NCc2ccc(Cl)c(Cl)c2)nc2cnn(CC3CCCNC3)c12` (stereo not drawn) [Compound 154, 5-((3,4-dichlorobenzyl)amino)-1-(piperidin-3-ylmethyl)-1H-pyrazolo[4,3-d]pyrimidin-7(6H)-one hydrochloride] the MIC [1] was 32 mg/L, the MIC [2, 8] was 32 mg/L and the MIC [3, 9] was 32 mg/L. The MIC [4] was 32 mg/L, the MIC [5, 10] was 4 mg/L and the MIC [6, 11] was 8 mg/L. The MIC [7, 12] was greater than 64 mg/L and the “MIC E. coli ATCC 25922 + 4 mM EDTA” value [7, 8] was 32 mg/L.

`Cl.O=c1[nH]c(NCc2ccc(Cl)c(Cl)c2)nc2cnn(CC3CCNC3)c12` (stereo not drawn) [Compound 155, 5-((3,4-dichlorobenzyl)amino)-1-(pyrrolidin-3-ylmethyl)-1H-pyrazolo[4,3-d]pyrimidin-7(6H)-one hydrochloride] gave an MIC [1] of 64 mg/L, an MIC [2, 8] of 32 mg/L and an MIC [3, 9] of 64 mg/L. The MIC [4] was 32 mg/L, the MIC [5, 10] was 8 mg/L and the MIC [6, 11] was 4 mg/L. The MIC [7, 12] was greater than 64 mg/L and the “MIC E. coli ATCC 25922 + 4 mM EDTA” value [7, 8] was greater than 64 mg/L.

Work on `Cl.O=c1[nH]c(NCc2ccc(Cl)c(Cl)c2)nc2cnn(C3CCN(S(=O)(=O)c4cccnc4)CC3)c12` [Compound 156, 5-((3,4-dichlorobenzyl)amino)-1-(1-(pyridin-3-ylsulfonyl)piperidin-4-yl)-1H-pyrazolo[4,3-d]pyrimidin-7(6H)-one hydrochloride] yielded an MIC [1] of 2 mg/L, an MIC [2, 8] of 2 mg/L and an MIC [3, 9] greater than 64 mg/L. For the same molecule, the MIC [4] was 1 mg/L, the MIC [5, 10] was 4 mg/L and the MIC [6, 11] was 1 mg/L. For the same molecule, the MIC [7, 12] was greater than 64 mg/L and the “MIC E. coli ATCC 25922 + 4 mM EDTA” value [7, 8] was greater than 64 mg/L.

`COCCN1CCC(n2ncc3nc(NCc4ccc(Cl)c(Cl)c4)[nH]c(=O)c32)CC1.Cl` [Compound 157, 5-((3,4-dichlorobenzyl)amino)-1-(1-(2-methoxyethyl)piperidin-4-yl)-1H-pyrazolo[4,3-d]pyrimidin-7(6H)-one hydrochloride] showed an MIC [1] of 4 mg/L, an MIC [2, 8] of 8 mg/L and an MIC [3, 9] of 8 mg/L. For the same molecule, the MIC [4] was 2 mg/L, the MIC [5, 10] was 4 mg/L and the MIC [6, 11] was 2 mg/L. For the same molecule, the MIC [7, 12] was greater than 64 mg/L and the “MIC E. coli ATCC 25922 + 4 mM EDTA” value [7, 8] was 64 mg/L.

For `O=C(Cn1ncc2nc(NCc3ccc(Cl)c(Cl)c3)[nH]c(=O)c21)N1CCOCC1` [Compound 158, 5-((3,4-dichlorobenzyl)amino)-1-(2-morpholino-2-oxoethyl)-1H-pyrazolo[4,3-d]pyrimidin-7(6H)-one], the MIC [1] was 32 mg/L (≈ 73.2 µM), the MIC [2, 8] was 16 mg/L (≈ 36.6 µM) and the MIC [3, 9] was 16 mg/L (≈ 36.6 µM). The MIC [4] was 8 mg/L (≈ 18.3 µM), the MIC [5, 10] was 4 mg/L (≈ 9.15 µM) and the MIC [6, 11] was 8 mg/L (≈ 18.3 µM). For the same molecule, the MIC [7, 12] was greater than 64 mg/L and the “MIC E. coli ATCC 25922 + 4 mM EDTA” value [7, 8] was greater than 64 mg/L.

In the case of `CN1CC(Cn2ncc3nc(NCc4ccc(Cl)c(Cl)c4)[nH]c(=O)c32)CC1=O` (stereo not drawn) [Compound 159, 5-((3,4-dichlorobenzyl)amino)-1-((1-methyl-5-oxopyrrolidin-3-yl)methyl)-1H-pyrazolo[4,3-d]pyrimidin-7(6H)-one], the MIC [1] is reported as 8 mg/L (≈ 19 µM), the MIC [2, 8] is reported as 8 mg/L (≈ 19 µM) and the MIC [3, 9] is reported as 8 mg/L (≈ 19 µM). The MIC [4] was 2 mg/L (≈ 4.75 µM), the MIC [5, 10] was 2 mg/L (≈ 4.75 µM) and the MIC [6, 11] was 2 mg/L (≈ 4.75 µM). For the same molecule, the MIC [7, 12] was greater than 64 mg/L and the “MIC E. coli ATCC 25922 + 4 mM EDTA” value [7, 8] was greater than 64 mg/L.

With `Cl.O=c1[nH]c(NCc2ccc(Cl)c(Cl)c2)nc2cnn(CCOCCN3CCOCC3)c12` [Compound 160, 5-((3,4-dichlorobenzyl)amino)-1-(2-(2-morpholinoethoxy)ethyl)-1H-pyrazolo[4,3-d]pyrimidin-7(6H)-one hydrochloride] the MIC [1] was 16 mg/L, the MIC [2, 8] was 16 mg/L and the MIC [3, 9] was 16 mg/L. It also gave an MIC [4] of 8 mg/L, an MIC [5, 10] of 4 mg/L and an MIC [6, 11] of 4 mg/L. The MIC [7, 12] was greater than 64 mg/L and the “MIC E. coli ATCC 25922 + 4 mM EDTA” value [7, 8] was 64 mg/L.

`Cl.Cl.O=c1[nH]c(NCc2ccc(Cl)c(Cl)c2)nc2cnn(C3CCN(c4ccccn4)CC3)c12` [Compound 161, 5-((3,4-dichlorobenzyl)amino)-1-(1-(pyridin-2-yl)piperidin-4-yl)-1H-pyrazolo[4,3-d]pyrimidin-7(6H)-one dihydrochloride] gave an MIC [1] of 4 mg/L, an MIC [2, 8] of 8 mg/L and an MIC [3, 9] greater than 64 mg/L. For the same molecule, the MIC [4] was 2 mg/L, the MIC [5, 10] was 16 mg/L and the MIC [6, 11] was 2 mg/L. For the same molecule, the MIC [7, 12] was greater than 64 mg/L and the “MIC E. coli ATCC 25922 + 4 mM EDTA” value [7, 8] was greater than 64 mg/L.

For `O=c1[nH]c(NCc2ccc(Cl)c(Cl)c2)nc2cnn(C3CCN(c4ccncc4)CC3)c12` [Compound 162, 5-((3,4-dichlorobenzyl)amino)-1-(1-(pyridin-4-yl)piperidin-4-yl)-1H-pyrazolo[4,3-d]pyrimidin-7(6H)-one dihydrochloride], the “MIC NRS 384 (MRSA)” value [1] was 2/4, the MIC ([2]; 20 h) was 4 mg/L and the MIC ([3]; ATCC29212, 20 h) was 4 mg/L. For the same molecule, the “MIC E. faecium ATCC 700221 (VRE)” value [4] was 2/2, the MIC ([5]; ATCC49619, 20 h) was 2 mg/L and the MIC ([6]; ATCC6633, 20 h) was 1 mg/L. For the same molecule, the MIC ([7]; ATCC25922, 20 h) was greater than 64 mg/L and the “MIC E. coli ATCC 25922 + 4 mM EDTA” value [7, 8] was 8 mg/L.

In the case of `O=c1[nH]c(NCc2ccc(Cl)c(Cl)c2)nc2cnn(C3CCN(c4cccnc4)CC3)c12` [Compound 163, 5-((3,4-dichlorobenzyl)amino)-1-(1-(pyridin-3-yl)piperidin-4-yl)-1H-pyrazolo[4,3-d]pyrimidin-7(6H)-one dihydrochloride], the “MIC NRS 384 (MRSA)” value [1] is reported as 2/2, the MIC ([2]; 20 h) is reported as 2 mg/L and the MIC ([3]; ATCC29212, 20 h) is reported as greater than 64 mg/L. For the same molecule, the “MIC E. faecium ATCC 700221 (VRE)” value [4] was 2/2, the MIC ([5]; ATCC49619, 20 h) was 8 mg/L and the MIC ([6]; ATCC6633, 20 h) was 0.5 mg/L. The MIC ([7]; ATCC25922, 20 h) was greater than 64 mg/L and the “MIC E. coli ATCC 25922 + 4 mM EDTA” value [7, 8] was greater than 64 mg/L.
